Patent US9504676B2, “Molecules inhibiting a metabolic pathway involving the Syk protein tyrosine kinase and method for identifying said molecules” (CENTRE NATIONAL DE LA RECHERCHE SCIENTIFIQUE, priority 2008, dated 2016)

Key:
[1] = tested on: BALB/c mice; assay: Antibody production after immunisation with TNP-KLH; assay type: in vivo; conditions: oral administration of 150 mg/kg, day 12
[2] = tested on: BMMC cells; assay: C-13 toxicity test on BMMC cells (Annexin-V and Propidium Iodide); assay type: cell-based; conditions: mouse
Method: FIG. 10. Toxicity test of C-13 on BMMC cells. The BMMC cells were incubated at 37° C. in the presence of 2.5 μM or 5 μM of C-13, 0.25% DMF or Staurosporine. The percentages of live BMMC cells after 3 hours and after 5 days were detected by means of double Annexin-V and Propidium Iodide labelling. The viability of BMMC cells incubated in the presence of 2.5 μM or 5 μM of C-13 or 0.25% DMF was not affected to noteworthy degree after 3 hours (78%, 74% and 79% respectively) or five days (62, 56 and 57%, respectively). On the other hand, the viability of BMMC cells treated under the same conditions with Staurosporine was reduced to a level of 16% after only 3 hours.
• 1) Chemical products and antibodies. A chemical bank of 3000 molecules (a varied subset) was acquired from ChemBridge, Inc. (San Diego, Calif.). Stocks of solutions of small molecules were prepared at a rate of 10 mM in DMSO (dimethylsulphoxide), except for C-13 (methyl 2-{5-[(3-benzyl-4-oxo-2-thioxo-1,3-thiazolidin-5-ylidene)methyl]-2-furyl}benzoate, ChemBridge ID No. 6197026) prepared in DMF (dimethylformamide). Unless specified otherwise, all the reagents were supplied by Sigma. Dinitrophenyl (DNP) hapten was acquired from Calbiochem. Sepharose GammaBind G and all the secondary antibodies were supplied by GE Health Amersham Biosciences. The anti-Syk, anti-Lyn, anti-Btk, anti-PLC-γ1, anti-PLC-γ2, anti-LAT, anti-SLP-76, anti-p38, anti-JNK, anti-Vav, anti-Akt1 and 9E10 antibodies conjugated with HRP were acquired from Santa Cruz Biotechnology. The anti-phospho-p44/42 MAP Kinase, anti-p44/42 MAP Kinase, anti-phospho-p38, anti-phospho-JNK, anti-phospho-Akt1 antibodies were acquired from Cell Signaling. The anti-phospho-LAT and anti-phospho-PLC-γ1 antibodies were supplied by Biosource and the anti-phospho-SLP-76 antibodies by BD Pharmingen. The 4G10 anti-phosphotyrosine monoclonal antibody was acquired from Upstate Biotechnology. • 2) ADA method: ELISA type high-speed molecule screening test, based on antibody displacement (WO 2005106481). The recombinant fusion protein GST:Syk 6-242^8 comprising the residues 6 to 242 of murine Syk tyrosine kinase protein illustrated in FIG. 8B (SEQ ID No. 4) was immobilised on an ELISA plate at a final concentration of 10 μg ml^−1. For the screening of the chemical molecule bank, the small molecules, diluted in PBS at a final concentration of 10 μM were added to the wells for one hour at ambient temperature, before adding the fragment scFv G4G11 at a final concentration of 100 nM for an additional hour. The binding of G4G11 with Syk was assessed by adding the 9E10 monoclonal antibody conjugated with HRP detecting the amino acid sequence EQKLISEEDLN of human c-myc protein located at the C-terminal end of the scFv fragment. To generate Syk mutants, targeted mutagenesis was used on GST:Syk 6-242 protein and the binding of G4G11 with the mutants was assessed in the presence of 5 μM of C-13. • 3) Cells, culture conditions and functional tests. Anti-DNP 2682-I mouse monoclonal antibody was used as the culture supernatant of hybridomas containing 1 μg/ml of IgE. Femoral bone marrow cells were sampled and cultured in Opti-MEM medium (Gibco) supplemented with 10% foetal calf serum and 4% X63 transfectant supernatant secreting murine IL-3. RBL-2H3 (ATCC) leukaemic rat basophil cells were maintained in a single-layer culture in RPMI 1640 medium supplemented with 10% foetal calf serum (Gibco). […]

COC(=O)c1ccccc1-c1ccc(/C=C2/SC(=S)N(Cc3ccccc3)C2=O)o1 [Molecule C-13, methyl 2-{5-[(3-benzyl-4-oxo-2-thioxo-1,3-thiazolidin-5-ylidene)methyl]-2-furyl}benzoate]
antibody responses of mice immunised with a thymus-dependent antigen [1]: not affected | percentage of live BMMC cells ([2]; 3 h, 2.5 μM): 78% | percentage of live BMMC cells ([2]; 3 h, 5 μM): 74% | percentage of live BMMC cells ([2]; 5 days, 2.5 μM): 62% | percentage of live BMMC cells ([2]; 5 days, 5 μM): 56%
